How the values were obtained:
[1] = system: rat; settings: Prenatal developmental toxicity study, sprague dawley, Injection, Intraperitoneal, dose end: 15 GD
[2] = system: rat; settings: Prenatal developmental toxicity study, long evans, Oral, Gavage/Intubation, dose end: 15 GD
[3] = system: rabbit; settings: Prenatal developmental toxicity study, new zealand white, Oral, Gavage/Intubation, dose end: 18 GD
[4] = system: dog; settings: Chronic toxicity, beagle, Oral, Feed, dose end: 104 week
[5] = system: rat; settings: Prenatal developmental toxicity study, sprague dawley, Oral, Gavage/Intubation, dose end: 15 GD
[6] = system: rat; settings: Multigenerational reproductive toxicity study, sprague dawley, Oral, Feed, dose end: 2 generation
[7] = group: developmental, systemic / in life observation / body weight / fetal weight
[8] = group: maternal, systemic / in life observation / clinical signs / [other] + systemic / in life observation / clinical signs / altered breathing rate + …
[9] = group: developmental, developmental / developmental malformation / placenta / size + systemic / in life observation / body weight / fetal weight
[10] = group: maternal, systemic / in life observation / body weight / body weight gain
[11] = group: cholinesterase, cholinesterase / cholinesterase / cholinesterase / brain (regional) cholinesterase (che) + cholinesterase / cholinesterase / cholinesterase…
[12] = group: developmental, developmental / developmental malformation / bone / [other]
[13] = group: maternal, systemic / in life observation / body weight / body weight + systemic / in life observation / body weight / body weight gain + systemic / in…
[14] = group: cholinesterase, cholinesterase / cholinesterase / cholinesterase / plasma cholinesterase (che) + cholinesterase / cholinesterase / cholinesterase / brain …
[15] = group: systemic, systemic / clinical chemistry / alkaline phosphatase (alp/alk) / alkaline phosphatase (alp/alk)
[16] = group: developmental, developmental / developmental malformation / bone / ossification sites + developmental / developmental malformation / bone / unossified + …
[17] = group: maternal, systemic / in life observation / body weight / body weight gain + systemic / in life observation / clinical signs / labored respiration + …
[18] = group: offspring, systemic / in life observation / body weight / offspring (pup) weight gain
[19] = group: parental, systemic / in life observation / body weight / body weight + systemic / in life observation / body weight / body weight gain + systemic / in…
[20] = group: reproductive, reproductive / reproductive performance / fertility / fertility + reproductive / reproductive performance / mating / mating

## CC(C)NCC(O)c1ccc(O)c(O)c1.Cl (stereo unspecified) [Isoproterenol hydrochloride]
[1]; [7]
  LEL: 20 mg/kg/day
  LOAEL: > 80 mg/kg/day
  NEL: < 20 mg/kg/day
  NOAEL: ≥ 80 mg/kg/day
[1]; [8]
  LEL: 20 mg/kg/day
  LOAEL: > 80 mg/kg/day
  NEL: < 20 mg/kg/day
  NOAEL: ≥ 80 mg/kg/day

## NC1CCCCC1 [Cyclohexylamine]
[2]; [9]
  LEL: 100 mg/kg/day
  LOAEL: > 100 mg/kg/day
  NEL: 30 mg/kg/day
  NOAEL: ≥ 100 mg/kg/day
[2]; [10]
  LEL: 100 mg/kg/day
  LOAEL: > 100 mg/kg/day
  NEL: 30 mg/kg/day
  NOAEL: ≥ 100 mg/kg/day

## CCOP(=S)(NC(C)C)Oc1ccccc1C(=O)OC(C)C (stereo unspecified) [Isofenphos]
[3]; [11]
  LEL: 1.25 mg/kg/day
  LOAEL: 1.25 mg/kg/day
  NEL: 0.25 mg/kg/day
  NOAEL: 0.25 mg/kg/day
[3]; [12]
  LEL: 7.5 mg/kg/day
  LOAEL: > 7.5 mg/kg/day
  NEL: 1.25 mg/kg/day
  NOAEL: ≥ 7.5 mg/kg/day
[3]; [13]
  LEL: 7.5 mg/kg/day
  LOAEL: 7.5 mg/kg/day
  NEL: 1.25 mg/kg/day
  NOAEL: 1.25 mg/kg/day
[4]; group: cholinesterase, cholinesterase / cholinesterase / cholinesterase / plasma cholinesterase (che)
  LOAEL: 0.45 mg/kg/day
[4]; [14]
  NEL: 0.09 mg/kg/day
  NOAEL: 0.09 mg/kg/day
[4]; group: cholinesterase, cholinesterase / cholinesterase / cholinesterase / plasma cholinesterase (che) + cholinesterase / cholinesterase / cholinesterase / …
  LEL: 0.45 mg/kg/day
[4]; [15]
  LEL: 3.43 mg/kg/day
  LOAEL: > 3.43 mg/kg/day
  NEL: 0.53 mg/kg/day
  NOAEL: ≥ 3.43 mg/kg/day

## O=Cc1ccccc1C=O [1,2-Benzenedicarboxaldehyde]
[5]; [16]
  LEL: 40 mg/kg/day
  LOAEL: 40 mg/kg/day
  NEL: 20 mg/kg/day
  NOAEL: 20 mg/kg/day
[5]; [17]
  LEL: 10 mg/kg/day
  LOAEL: 10 mg/kg/day
  NEL: < 10 mg/kg/day
  NOAEL: < 10 mg/kg/day

## CC(C)(NC(=O)NCc1ccccc1Cl)c1ccccc1 [Cumyluron]
[6]; [18]
  LEL: 297 mg/kg/day
  LOAEL: 297 mg/kg/day
  NEL: 54 mg/kg/day
  NOAEL: 54 mg/kg/day
[6]; [19]
  LEL: 297 mg/kg/day
  LOAEL: 297 mg/kg/day
  NEL: 54 mg/kg/day
  NOAEL: 54 mg/kg/day
[6]; [20]
  LEL: 297 mg/kg/day
  LOAEL: 297 mg/kg/day
  NEL: 54 mg/kg/day
  NOAEL: 54 mg/kg/day

Source: EPA's ToxRefDB 2
